Patent US8685919B2 (Zealand Pharma A/S, priority 2008, dated 2014)
Entries after “also recorded” stand apart in the source; their conditions may differ. Read-outs that look alike come from different tables or passages of the source. Peptide text beside a SMILES is read from it.

Legend:
[1] = target: T1, human GLP-1-R (Homo sapiens, UniProt P43220); test: GLP-1-receptor efficacy assay (cAMP in HEK293 cells); type: cell-based
T1 construct: expressed in transfected cells
Procedure: The 5′-end primers additionally encoded a near Kozak consensus sequence to ensure efficient translation.
48 hr after transfection cells were seeded for limited dilution cloning and selected with 1 mg/ml G418 in the culture medium.
On the day of analysis, growth medium was removed and the cells washed once with 200 μl Tyrode buffer. Cells were incubated in 100 μl Tyrode buffer containing increasing concentrations of test peptides, 100 μM IBMX, and 6 mM glucose for 15 min at 37° C. The reaction was stopped by addition of 25 μl 0.5 M HCl and incubated on ice for 60 min. The cAMP content was estimated using the FlashPlate® cAMP kit from Perkin-Elmer.

[2] = tested on: primary rat adipocyte cultures; type: cell-based
Procedure: Adipocytes were isolated from epididymal fat dissected from normal young adult Sprague-Dawley rats. The fat lumps were minced, incubated and shaken (220 rpm) with collagenase (1 mg/ml) in Krebs-Ringer buffer containing 4% BSA (KRB-BSA) for 60 minutes at 37° C. The suspension was filtered through a nylon filter (160 μm pore size) and the filtrate centrifuged at 200×g for 3 min. The subjacent medium beneath the upper floating layer of adipocytes was removed with a Pasteur-pipette. The adipocytes were washed 3 times in KRB-BSA buffer by re-suspension and centrifugation. The adipocytes were re-suspended in KRB-BSA, mixed, incubated in and shaken with test compounds in 96-deep well plates (50,000 cells/well) in a total volume of 1 ml at 37° C. for 60 min. The plates were placed on ice for at least 10 min after incubation followed by centrifugation at 200×g for 3 min. 300 μl of the buffer beneath the adipocyte layer were collected in a 96-deep well plate. This process was repeated two more times and the 3 extracts collected from each culture pooled together.

[3] = tested on: db/db mice; test: Oral glucose tolerance test (OGTT) in db/db mice; type: in vivo; conditions: 45 nmol/kg i.p.
Procedure: Db/db mice were fasted overnight and an initial blood sample (fasting blood glucose level) taken just before administration (i.p.) of vehicle (Acetate buffer, 20 mM acetic acid, 250 mM mannitol, pH 5.0) or the test compound ZP2669 (SEQ ID NO: 4) (45 nmol/kg in acetate buffer). The animals were kept fasted during the experiment to prevent confounding food intake. Fifteen minutes later an oral dose of glucose (1 g/kg in 5 ml/kg) was given and BG levels were measured at t=30 min, t=60 min, t=120 min and t=240 min.
Difference from baseline (t=0) was calculated for each time point and AUC0-240 min values were determined. Statistical analyses of AUC values by one-way ANOVA and Dunnetts post-hoc analyses were performed with GraphPad Prism version 4. Differences were considered significant at the p<0.05 level.

[4] = tested on: C57BI/6 mice; test: Food intake in normal mice; type: in vivo; conditions: fasted mice, s.c.; PYY3-36 30 nmol/kg, glucagon 500 nmol/kg, ZP2669 500 nmol/kg
Excerpt: Differences were considered significant at the p<0.05 level.

[5] = tested on: diet induced obese (DIO) mice; test: 28 day treatment of diet induced obese (DIO) mice: body weight gain; type: in vivo
Procedure: Four weeks before drug treatments, C57BI/6 male mice (7 weeks)) (N=10-12 animals in each group) were put on high fat diet (HFD) and their day-night cycle reversed with lights On/Off at 2000/0800 hour. Experimental animals were conditioned to treatment by daily injections (s.c.) of 0.1 ml vehicle and acclimatized to handling by weighing them twice a week one week before start of drug administrations. The day before start of experiment, mice were stratified into groups with similar body weight (BW) and the next day groups of stratified mice were treated (b.i.d.; s.c.) with ZP2669 (SEQ ID NO: 4) (500 nmol/kg) or vehicle (Acetate-buffer). ZP2669 (SEQ ID NO: 4) was given in isotonic acetate buffer (pH 4.8; 2.5 μl/g BW). […] Body weights were recorded daily and used to administer the body weight-corrected doses of peptide throughout the study. […] Blood plasma samples were stored at −80° C. until analyzed for cholesterol, HDL and LDL using commercially available kits. Body weight gains throughout the treatment period were calculated for each animal by subtracting its weight at the initiation of treatment.
The effects of treatment on body weight gain and cholesterols were assessed by 2-way ANOVA with repeated measures and Bonferoni post-hoc analyses, using GraphPad Prism version 4. […]

[6] = tested on: diet induced obese (DIO) mice; test: 28 day treatment of DIO mice: plasma cholesterols (cholesterol, HDL, LDL); type: in vivo; conditions: DIO mice treated 4 weeks b.i.d., compared to vehicle
Procedure: Four weeks before drug treatments, C57BI/6 male mice (7 weeks)) (N=10-12 animals in each group) were put on high fat diet (HFD) and their day-night cycle reversed with lights On/Off at 2000/0800 hour. Experimental animals were conditioned to treatment by daily injections (s.c.) of 0.1 ml vehicle and acclimatized to handling by weighing them twice a week one week before start of drug administrations. […] A non-obese control group maintained on regular chow was treated with vehicle in the same treatment regime as the DIO groups. Body weights were recorded daily and used to administer the body weight-corrected doses of peptide throughout the study. Animals were fasted overnight before sacrifice. An eye blood sample (0.6 ml EDTA) was obtained the following morning immediately before cervical dislocation. Blood plasma samples were stored at −80° C. until analyzed for cholesterol, HDL and LDL using commercially available kits. Body weight gains throughout the treatment period were calculated for each animal by subtracting its weight at the initiation of treatment.
The effects of treatment on body weight gain and cholesterols were assessed by 2-way ANOVA with repeated measures and Bonferoni post-hoc analyses, using GraphPad Prism version 4. Differences were considered significant at the p<0.05 level.

T1 sequence (P43220 24-463): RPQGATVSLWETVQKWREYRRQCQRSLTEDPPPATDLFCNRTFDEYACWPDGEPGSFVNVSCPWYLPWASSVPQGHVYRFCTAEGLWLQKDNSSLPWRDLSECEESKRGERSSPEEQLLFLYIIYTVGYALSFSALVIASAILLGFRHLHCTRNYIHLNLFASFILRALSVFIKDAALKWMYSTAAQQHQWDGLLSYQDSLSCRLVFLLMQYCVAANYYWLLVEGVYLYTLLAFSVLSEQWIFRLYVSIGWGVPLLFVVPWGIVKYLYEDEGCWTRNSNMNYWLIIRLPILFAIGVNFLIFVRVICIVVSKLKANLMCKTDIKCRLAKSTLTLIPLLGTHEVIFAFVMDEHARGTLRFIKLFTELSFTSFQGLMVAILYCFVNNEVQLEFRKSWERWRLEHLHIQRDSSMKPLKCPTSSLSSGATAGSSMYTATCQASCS

For Exendin-4 [reference compound], the GLP-1R agonism ([1]; result in words) was “very potent GLP-1R agonist”, the Effect on lipolysis ([2]; primary adipocyte cultures, result in words) was “no effect” and the “Stimulation of lipolysis EC50 (nM)” value ([2]; primary rat adipocyte cultures, 60 min at 37° C.) was “No effect”.

With CC(C)C[C@H](NC(=O)[C@H](CC(C)C)NC(=O)[C@H](Cc1c[nH]c2ccccc12)NC(=O)[C@H](CCC(=O)O)NC(=O)[C@@H](NC(=O)[C@H](Cc1ccccc1)NC(=O)[C@H](CC(=O)O)NC(=O)[C@H](Cc1c[nH]cn1)NC(=O)[C@H](C)NC(=O)[C@H](C)NC(=O)[C@H](CCCCN)NC(=O)[C@H](CO)NC(=O)[C@H](CC(=O)O)NC(=O)[C@H](CC(C)C)NC(=O)[C@H](Cc1ccc(O)cc1)NC(=O)[C@H](CCCCN)NC(=O)[C@H](CO)NC(=O)[C@H](Cc1ccc(O)cc1)NC(=O)[C@H](CC(=O)O)NC(=O)[C@H](CO)NC(=O)[C@@H](NC(=O)[C@H](Cc1ccccc1)NC(=O)[C@@H](NC(=O)CNC(=O)[C@H](CCC(N)=O)NC(=O)[C@H](CO)NC(=O)[C@@H](N)Cc1c[nH]cn1)[C@@H](C)O)[C@@H](C)O)C(C)C)C(=O)N[C@@H](CCCNC(=N)N)C(=O)N[C@@H](C)C(N)=O [ZP2669] (H-HSQGTFTSDYSKYLDSKAAHDFVEWLLRA-NH2) the EC50 [2] was 4.6 nM, the “Lipolysis potency relative to OXM” value ([2]; primary adipocyte cultures) was 40 times and the “Lipolysis potency relative to glucagon” value ([2]; primary adipocyte cultures) was “equipotent with glucagon”. For the same molecule, the “Improvement of glucose tolerance” value ([3]; 15 min before oral glucose 1 g/kg, AUC0-240 min) was 77.1%, the “Effect on oral glucose tolerance” value ([3]; diabetic db/db mice, result in words) was “significantly (P<0.01) improved glucose tolerance” and the “Effect on food intake during the first hour” value [4] was “significantly (P<0.05) decreased food intake”. For the same molecule, the “Effect on body weight gain” value ([5]; 500 nmol/kg b.i.d. s.c., 28 days, high fat diet) was “decreased body weight gain to a level similar to that observed with chow feeding”, the “Effect on fat deposition” value ([5]; 4 weeks treatment of DIO mice) was “significantly decreased fat deposition” and the “Effect on HDL/LDL ratios” value [6] was “significant compared to vehicle; also recorded: significant effect”. The “Effect on blood concentration of LDL cholesterol” value [6] was “significant compared to vehicle; also recorded: significant effect”.

CC(C)C[C@H](NC(=O)[C@H](CCCCN)NC(=O)[C@H](CC(C)C)NC(=O)[C@H](Cc1c[nH]c2ccccc12)NC(=O)[C@H](CCCNC(=N)N)NC(=O)[C@@H](NC(=O)[C@H](Cc1ccccc1)NC(=O)[C@H](CC(=O)O)NC(=O)[C@H](CCCNC(=N)N)NC(=O)[C@H](C)NC(=O)[C@H](C)NC(=O)[C@H](CCCCN)NC(=O)[C@H](CO)NC(=O)[C@H](CC(=O)O)NC(=O)[C@H](CC(C)C)NC(=O)[C@H](Cc1ccc(O)cc1)NC(=O)[C@H](CCCCN)NC(=O)[C@H](CO)NC(=O)[C@H](Cc1ccc(O)cc1)NC(=O)[C@H](CC(=O)O)NC(=O)[C@H](CO)NC(=O)[C@@H](NC(=O)[C@H](Cc1ccccc1)NC(=O)[C@@H](NC(=O)CNC(=O)[C@H](CCC(N)=O)NC(=O)[C@H](CO)NC(=O)[C@@H](N)Cc1c[nH]cn1)[C@@H](C)O)[C@@H](C)O)C(C)C)C(=O)N[C@@H](C)C(N)=O [ZP2668] (H-HSQGTFTSDYSKYLDSKAARDFVRWLKLA-NH2) was tested, and the EC50 ([1]; HEK293 cells expressing human GLP-1-R, cAMP, 15 min at 37° C., read-out: GLP-1R EC50) was 0.08 nM, the EC50 [2] was 101 nM and the “Lipolysis potency relative to OXM” value ([2]; primary adipocyte cultures) was “in the same order of magnitude as OXM”.

For CC(C)C[C@H](NC(=O)[C@H](CC(C)C)NC(=O)[C@H](Cc1c[nH]c2ccccc12)NC(=O)[C@H](CCC(N)=O)NC(=O)[C@@H](NC(=O)[C@H](Cc1ccccc1)NC(=O)[C@H](CC(=O)O)NC(=O)[C@H](Cc1c[nH]cn1)NC(=O)[C@H](C)NC(=O)[C@H](C)NC(=O)[C@H](CCCCN)NC(=O)[C@H](CO)NC(=O)[C@H](CC(=O)O)NC(=O)[C@H](CC(C)C)NC(=O)[C@H](Cc1ccc(O)cc1)NC(=O)[C@H](CCCCN)NC(=O)[C@H](CO)NC(=O)[C@H](Cc1ccc(O)cc1)NC(=O)[C@H](CC(=O)O)NC(=O)[C@H](CO)NC(=O)[C@@H](NC(=O)[C@H](Cc1ccccc1)NC(=O)[C@@H](NC(=O)CNC(=O)[C@H](CCC(N)=O)NC(=O)[C@H](CO)NC(=O)[C@@H](N)Cc1c[nH]cn1)[C@@H](C)O)[C@@H](C)O)C(C)C)C(=O)N[C@@H](CCCNC(=N)N)C(=O)N[C@@H](C)C(N)=O [Compound L006-0172] (H-HSQGTFTSDYSKYLDSKAAHDFVQWLLRA-NH2), the EC50 ([1]; read-out: GLP-1R EC50 (nM), crude peptides marked *) was 21 nM.

In the case of CSCC[C@H](NC(=O)[C@H](CC(C)C)NC(=O)[C@H](Cc1c[nH]c2ccccc12)NC(=O)[C@H](CCC(N)=O)NC(=O)[C@@H](NC(=O)[C@H](Cc1ccccc1)NC(=O)[C@H](CC(=O)O)NC(=O)[C@H](CCC(N)=O)NC(=O)[C@H](C)NC(=O)[C@H](C)NC(=O)[C@H](CCCCN)NC(=O)[C@H](CO)NC(=O)[C@H](CC(=O)O)NC(=O)[C@H](CC(C)C)NC(=O)[C@H](Cc1ccc(O)cc1)NC(=O)[C@H](CCCCN)NC(=O)[C@H](CO)NC(=O)[C@H](Cc1ccc(O)cc1)NC(=O)[C@H](CC(=O)O)NC(=O)[C@H](CO)NC(=O)[C@@H](NC(=O)[C@H](Cc1ccccc1)NC(=O)[C@@H](NC(=O)CNC(=O)[C@H](CCC(N)=O)NC(=O)[C@H](CO)NC(=O)[C@@H](N)Cc1c[nH]cn1)[C@@H](C)O)[C@@H](C)O)C(C)C)C(=O)N[C@@H](CC(N)=O)C(=O)N[C@H](C(N)=O)[C@@H](C)O [ZP2667] (H-HSQGTFTSDYSKYLDSKAAQDFVQWLMNT-NH2), the EC50 [2] is reported as 0.75 nM, the “Lipolysis potency relative to OXM” value ([2]; primary adipocyte cultures) is reported as 240 times and the “Lipolysis potency relative to glucagon” value ([2]; primary adipocyte cultures) is reported as 8 times.

With “PYY(3-36): internal positive control in the food intake test, anorectic effect [reference compound]” the “Effect on food intake during the first hour” value [4] was “showed an anorectic effect”.
